Legend:
[1] = tested on: H1299; assay: Cellular proliferation assay (Alamar blue), H1299; type: cell-based; details: Homo sapiens, NCI-H1299; 10% FCS; 72 hours with compound; Alamar blue 4 h
How it was run: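 This proliferation assay on NCI-H1299 cells used an initial 24-hour compound-free incubation after seeding, followed by 72 hours of compound treatment with 10% FCS serum at 37° C. and 5% (v/v) CO2. Viable cells were quantified by a 4 h Alamar blue incubation and fluorescent plate reading at 544 nm/590 nm, and effects were expressed relative to control cells.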

[2] = molecular target: PLK3 (h) (Homo sapiens, UniProt Q9H4B4); assay: PLK3 human kinase inhibition, SPA; type: biochemical; details: read-out: PLK3 pIC50 (converted)
How it was run: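 SPA: PLK3 (h) at 30 μg/ml with 2 μM biotinylated peptide, 0.1 μM ATP plus 2 nM [γ-33P]ATP in 50 mM Hepes pH 8.0, 2 mM MnCl2 and 1 mM DTT. Incubated 20 min at room temperature, then stopped with EDTA and streptavidin PVT beads. Scintillation imaged on Leadseeker.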

[3] = tested on: HCT-116; assay: Cellular proliferation assay (Alamar blue), HCT-116; type: cell-based; details: Homo sapiens, 10% FCS, 72 hours with compound, Alamar blue 4 h
How it was run: (§1)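 Cells were seeded in medium with 10% FCS at 37° C, 5% CO2, left 24 h without compound, then exposed to compounds for 72 h. Viability was read with Alamar blue (resazurin 9 μg/ml, K-ferrocyanide and K-ferricyanide 90 μM each), 6 h for U87-MG, 4 h for HCT-116, 24 h for A2780 and MDA-MB-231.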

[4] = molecular target: CDK4/CyclinD1 (h) (Homo sapiens, UniProt P11802); assay: CDK4/CyclinD1 human kinase inhibition, SPA with GST-pRb substrate; type: biochemical; details: read-out: CDK4 pIC50 (converted)
How it was run: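 Human CDK4/CyclinD1 (2.5 μg/ml) was incubated with 40 μg/ml GST-pRb and 2 nM [γ-33P]ATP in 50 mM Hepes pH 7.5, 8 mM NaF, 20 mM MgCl2, 1 mM DTT for 60 min at room temperature. EDTA stop with glutathione SPA beads; phosphorylation read by scintillation counting.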

[5] = molecular target: PLK2 (h) (Homo sapiens, UniProt Q9NYY3); assay: PLK2 human kinase inhibition, SPA; type: biochemical; details: read-out: PLK2 pIC50 (converted)
How it was run: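 SPA read on Leadseeker: PLK2 (30 μg/ml) with 2 μM biotinylated peptide, 0.1 μM ATP plus 2 nM [γ-33P]ATP in 50 mM Hepes pH 8.0, 2 mM MnCl2, 1 mM DTT. Reaction ran 20 min at room temperature, then EDTA stop and streptavidin PVT beads.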

[6] = tested on: U87-MG; assay: Cellular proliferation assay (Alamar blue), U87-MG; type: cell-based; details: Homo sapiens, U-87 MG; 10% FCS; 72 hours with compound; Alamar blue 6 h; read-out: U87-MG (cellular proliferation assay, Table 4) (converted)
How it was run: as §1

[7] = tested on: A2780; assay: Cellular proliferation assay (Alamar blue), A2780; type: cell-based; details: Homo sapiens, 10% FCS, 72 hours with compound, Alamar blue 24 h, read-out: A2780 (cellular proliferation assay, Table 4) (converted)
How it was run: as §1

[8] = molecular target: PLK1 T210D (h) (Homo sapiens, UniProt P53350, T210D); assay: PLK1 human kinase inhibition, SPA; type: biochemical; details: read-out: PLK1 pIC50 (converted)
How it was run: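 Radiometric SPA with PLK1 T210D (0.125 ng/ml) in 50 mM Hepes pH 8.0, 2 mM MnCl2, 1 mM DTT, 2 μM biotinylated peptide, 0.1 μM ATP plus 2 nM [γ-33P]ATP. 40 min at room temperature, EDTA stop. Phosphorylated substrate captured on streptavidin PVT beads, scintillation imaged.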

[9] = molecular target: GSK3β (h) (Homo sapiens, UniProt P49841); assay: GSK-3β human kinase inhibition, SPA; type: biochemical; details: read-out: GSK3b pIC50 (converted)
How it was run: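 Scintillation proximity assay: GSK3β (1 μg/ml) with 1 μM biotinylated peptide, 1 μM ATP plus [γ-33P]ATP in Tris pH 7.4, MgCl2, DTT. 60 min at room temperature, stopped with EDTA and streptavidin PVT beads; phosphorylation read by Leadseeker imaging.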

Measured: IC50

Chain of PLK1 T210D (h) (P53350 whole entry T210D): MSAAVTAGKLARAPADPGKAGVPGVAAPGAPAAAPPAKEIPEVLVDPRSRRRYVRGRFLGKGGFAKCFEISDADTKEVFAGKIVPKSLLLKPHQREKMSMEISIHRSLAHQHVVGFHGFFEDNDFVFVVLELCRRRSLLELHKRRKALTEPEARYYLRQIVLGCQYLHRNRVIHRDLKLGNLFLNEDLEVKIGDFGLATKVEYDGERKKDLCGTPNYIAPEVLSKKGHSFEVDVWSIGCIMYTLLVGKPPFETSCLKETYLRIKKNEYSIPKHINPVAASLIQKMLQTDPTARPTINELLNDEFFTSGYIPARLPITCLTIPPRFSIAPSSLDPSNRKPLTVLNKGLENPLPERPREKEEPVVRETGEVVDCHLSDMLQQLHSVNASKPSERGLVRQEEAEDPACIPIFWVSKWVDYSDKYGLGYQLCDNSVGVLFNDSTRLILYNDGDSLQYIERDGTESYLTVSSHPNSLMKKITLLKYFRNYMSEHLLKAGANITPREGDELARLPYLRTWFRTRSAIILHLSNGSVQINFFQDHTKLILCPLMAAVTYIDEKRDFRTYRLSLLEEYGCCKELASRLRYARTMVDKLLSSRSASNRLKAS
Chain of PLK2 (h) (Q9NYY3 whole entry): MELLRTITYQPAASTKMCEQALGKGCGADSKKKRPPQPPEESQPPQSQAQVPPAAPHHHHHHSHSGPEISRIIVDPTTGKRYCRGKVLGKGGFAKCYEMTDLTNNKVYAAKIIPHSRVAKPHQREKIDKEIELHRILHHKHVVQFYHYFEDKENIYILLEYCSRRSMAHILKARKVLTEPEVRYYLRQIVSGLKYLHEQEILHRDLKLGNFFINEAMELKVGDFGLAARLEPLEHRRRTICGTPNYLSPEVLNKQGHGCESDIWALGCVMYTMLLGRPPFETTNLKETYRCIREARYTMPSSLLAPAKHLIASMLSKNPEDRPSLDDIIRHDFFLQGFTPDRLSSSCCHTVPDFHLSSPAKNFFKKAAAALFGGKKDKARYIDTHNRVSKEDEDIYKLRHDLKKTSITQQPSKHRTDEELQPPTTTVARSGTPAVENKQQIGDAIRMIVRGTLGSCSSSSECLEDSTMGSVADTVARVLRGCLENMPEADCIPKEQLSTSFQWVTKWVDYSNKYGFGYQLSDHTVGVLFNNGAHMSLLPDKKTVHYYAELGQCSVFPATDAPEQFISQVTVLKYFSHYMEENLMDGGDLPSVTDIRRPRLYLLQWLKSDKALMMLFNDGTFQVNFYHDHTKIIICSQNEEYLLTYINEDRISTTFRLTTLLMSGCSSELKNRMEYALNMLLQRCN
Chain of PLK3 (h) (Q9H4B4 whole entry): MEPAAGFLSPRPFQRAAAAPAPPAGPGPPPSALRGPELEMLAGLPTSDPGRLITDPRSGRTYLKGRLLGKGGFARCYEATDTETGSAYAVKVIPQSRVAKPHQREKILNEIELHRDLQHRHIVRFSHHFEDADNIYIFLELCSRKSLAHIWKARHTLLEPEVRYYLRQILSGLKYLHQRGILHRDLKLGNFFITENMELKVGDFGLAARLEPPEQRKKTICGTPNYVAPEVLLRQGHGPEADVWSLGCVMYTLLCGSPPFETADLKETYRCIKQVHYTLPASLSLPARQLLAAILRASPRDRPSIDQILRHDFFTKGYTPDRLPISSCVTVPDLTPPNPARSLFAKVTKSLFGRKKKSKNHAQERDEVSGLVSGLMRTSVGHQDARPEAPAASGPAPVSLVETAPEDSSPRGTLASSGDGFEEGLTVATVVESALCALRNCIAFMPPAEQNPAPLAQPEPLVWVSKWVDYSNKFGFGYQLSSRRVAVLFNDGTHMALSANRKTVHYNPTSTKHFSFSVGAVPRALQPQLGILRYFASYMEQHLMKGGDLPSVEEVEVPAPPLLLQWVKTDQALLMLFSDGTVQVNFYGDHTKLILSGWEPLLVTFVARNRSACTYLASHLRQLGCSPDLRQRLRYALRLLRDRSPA
Chain of GSK3β (h) (P49841 whole entry): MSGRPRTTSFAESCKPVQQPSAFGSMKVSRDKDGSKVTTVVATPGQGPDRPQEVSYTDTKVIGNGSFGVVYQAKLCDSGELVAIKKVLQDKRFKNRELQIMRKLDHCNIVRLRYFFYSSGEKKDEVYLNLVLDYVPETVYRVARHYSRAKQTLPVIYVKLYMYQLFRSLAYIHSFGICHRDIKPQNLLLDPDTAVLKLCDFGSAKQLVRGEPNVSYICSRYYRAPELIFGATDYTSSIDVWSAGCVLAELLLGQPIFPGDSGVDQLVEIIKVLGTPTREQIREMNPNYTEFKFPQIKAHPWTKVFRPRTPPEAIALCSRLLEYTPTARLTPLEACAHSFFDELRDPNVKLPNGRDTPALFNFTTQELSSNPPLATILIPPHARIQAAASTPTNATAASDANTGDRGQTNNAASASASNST
Chain of CDK4/CyclinD1 (h) (P11802 whole entry): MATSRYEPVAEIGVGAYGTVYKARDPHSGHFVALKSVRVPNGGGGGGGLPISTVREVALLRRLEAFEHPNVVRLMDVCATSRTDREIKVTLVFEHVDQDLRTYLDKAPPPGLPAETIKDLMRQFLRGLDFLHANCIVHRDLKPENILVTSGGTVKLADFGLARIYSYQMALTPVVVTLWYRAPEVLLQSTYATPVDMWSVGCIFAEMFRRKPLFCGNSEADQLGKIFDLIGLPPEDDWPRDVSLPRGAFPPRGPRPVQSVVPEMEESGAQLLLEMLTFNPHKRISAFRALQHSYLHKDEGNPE
Chain of CDK4/CyclinD1 (h) (P24385 whole entry partner): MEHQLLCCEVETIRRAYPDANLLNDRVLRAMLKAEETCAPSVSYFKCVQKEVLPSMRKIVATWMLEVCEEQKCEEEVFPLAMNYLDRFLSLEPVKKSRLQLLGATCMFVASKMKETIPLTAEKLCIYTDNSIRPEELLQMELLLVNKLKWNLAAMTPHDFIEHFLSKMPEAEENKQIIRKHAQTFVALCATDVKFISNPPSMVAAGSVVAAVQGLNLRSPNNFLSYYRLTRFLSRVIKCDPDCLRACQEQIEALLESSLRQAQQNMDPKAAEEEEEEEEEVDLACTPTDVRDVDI

COc1ccc2cc1CN(C)CCCNC(=O)[C@@H]1CCCN1Cc1cccc(c1)Nc1nccc-2n1 [Compound 180]
> 10 µM: [1] | [2] | [3] | [4] | [5] | [6] | [7] | [8] | [9]
